Patent US12331058B2, “SHP2 and CDK4/6 dual-target inhibitory compound and pharmaceutical composition containing the same” (CHINA PHARMACEUTICAL UNIVERSITY, priority 2021, dated 2025)
Like-named read-outs stand apart in the source and are kept apart here.

How the values were obtained:
[1] = test system: MDA-MB-231 cells; assay: In vitro antiproliferative activity (MTT), MDA-MB-231; type: cell-based; conditions: Homo sapiens, MDA-MB-231, 72 h, 3 days of incubation
Protocol: (§1) In Vitro Antiproliferative Activity of Compound 1. Experimental Procedure
(§2) (4) MDA-MB-231, MDA-MB-468 or EMT6 cells are taken out of a liquid nitrogen tank, immediately placed in a constant temperature water bath at 37° C. and melted by shaking, then the cells are poured into a culture flask. The culture solution (containing 10% of fetal bovine serum) is added for dilution. The diluted culture medium is transferred into a centrifuge tube, centrifuged at 1000 r/min for 5 minutes. The supernatant is discarded and fresh culture medium is added for blowing and mixing uniformly. The mixture is transferred into a culture bottle, and cultured in a culture box with a concentration of 5% CO2 at 37° C. When the cells are adhered to the wall and almost fully paved at the bottle bottom, the passage begins. A little amount of fresh culture medium (containing 10% of fetal calf serum) is added to terminate the digestion. The liquid in the culture bottle is poured out, and the culture bottle is washed twice with PBS. The fresh culture medium is added to blow and mix uniformly, and divided evenly into two culture bottles for continuing the culture.
(§3) (5) Cells in the logarithmic phase are taken, and the old culture medium are poured out. The trypsin solution is added for digestion for 3 minutes, and the fresh culture medium containing 10% of fetal bovine serum is added for terminating digestion. The solution is transferred into a centrifuge tube, centrifuged at 1000 r/min for 5 minutes, and the supernatant is discarded. The cells are counted by adding a medium to prepare into a cell suspension. After counting, cells are seeded in 96-well plates at a cell concentration of 5000-10000 cells per well. The 96-well plate with the spread cells is placed in a 5% CO2 incubator at 37° C. for a continuous culture for 24 hours. The drugs are diluted in gradient to 90μ mol/L, 30μ mol/L, 10μ mol/L, […], 0.37μ mol/L with medium and then added to 96-well plates at 100 μL per well, with three multiplex wells per concentration. The control group is added with medium containing solvent with the corresponding concentration, the zeroing hole is added with blank medium with the same volume, and the blank medium is placed in a culture box with 5% CO2 and 37° C. for 3 days of incubation with a replacement of the medium every two days. 20 μL of MTT (5 mg/mL) is added to each well. After mixing uniformly, the mixture is incubated in a 5% CO2 incubator at 37° C. for 4 hours in the absence of light. With a removement of the liquid in the 96-well plate and an addition of 150 μl of DMSO to each well, the mixture is placed on a micro-shaker and shaken to completely dissolve the crystals at the bottom. Subsequently, the 96-well plate is placed in an microplate reader for detection and the absorbance is measured at 490 nm.
(§4) Curve is drawn and inhibition rate of drug to cell and IC50 are calculated. Inhibition ratio=[(average OD value for control group-average OD value for experimental group)/(average OD value for control group-average OD value for blank control group)]×100%. 3. Experimental Results
(§5) The inhibitory activities of the compounds on MDA-MB-231, MDA-MB-468 and EMT6 cell lines are as follows: […]

[2] = test system: MDA-MB-468 cells; assay: In vitro antiproliferative activity (MTT), MDA-MB-468; type: cell-based; conditions: Homo sapiens, MDA-MB-468, 72 h, 3 days of incubation
Protocol: as §1, §2, §3, §4, §5

[3] = test system: EMT6 cells; assay: In vitro antiproliferative activity (MTT), EMT6; type: cell-based; conditions: Mus musculus, EMT6, 72 h, 3 days of incubation
Protocol: as §1, §2, §3, §4, §5

[4] = target: CDK4 (Homo sapiens, UniProt P11802); assay: CDK4 enzyme activity test in vitro; type: biochemical; conditions: Caliper EZ Reader II conversion
Protocol: CDK4 Enzyme Activity Test In Vitro
(§7) The compound is dissolved in 100% DMSO to prepare into a 30 mM storage solution, which is stored in −20° C. refrigerator in the dark.
(1) 1×Kinase buffer is prepared.
(2) The preparation of concentration gradient of the compound: tested compound is tested at an initial concentration of 30000 nM according to a customer's request, diluted into a 100% DMSO solution at a 100-fold final concentration in a 384 source plate, diluted by 3-fold with 10 concentrations, 250 nL of compound with a 100-fold final concentration is transferred to the target plate of 384-well-plate by using a dispenser Echo 550.
(3) A Kinase solution with a 2.5-fold final concentration is prepared by using a 1×Kinase buffer.
(4) 10 μL of kinase solution with a 2.5-fold final concentration is added to the compound wells and the positive control wells, respectively; 10 μL of 1×Kinase buffer is added to the negative control wells.
(5) The kinase solution is centrifugated at 1000 rpm for 30 seconds, and incubated at the room temperature for 10 minutes after the reaction plate is shaken and mixed uniformly.
(7) The reaction is initiated by adding 15 μL of the mixed solution of ATP and substrate at a 5/3-fold final concentration.
(8) The 384-well plate is centrifuged at 1000 rpm for 30 seconds, and incubated at the room temperature for 180 minutes after shaking and mixing uniformly.
(9) The kinase reaction is terminated by adding 30 μL of termination detection solution, centrifuged at 1000 rpm for 30 seconds with shaking and mixing uniformly.
(10) The conversion is read by using Caliper EZ Reader II.
Calculation Formula is as follows:
Conversion %_sample denotes a conversion reading of the sample; Conversion % min denotes an average value for negative control wells, represents a conversion reading without enzyme wells; Convesion %_max denotes an average value for positive control wells, represents a conversion reading without compound inhibition wells.

[5] = target: T1, SHP2 (Homo sapiens, UniProt Q06124); assay: SHP2 enzyme activity test in vitro;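 note: IC50 derived by variable-slope curve fitting of percent inhibition of SHP2 enzymatic activity plotted against log compound concentration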
T1 sequence (Q06124 1-593): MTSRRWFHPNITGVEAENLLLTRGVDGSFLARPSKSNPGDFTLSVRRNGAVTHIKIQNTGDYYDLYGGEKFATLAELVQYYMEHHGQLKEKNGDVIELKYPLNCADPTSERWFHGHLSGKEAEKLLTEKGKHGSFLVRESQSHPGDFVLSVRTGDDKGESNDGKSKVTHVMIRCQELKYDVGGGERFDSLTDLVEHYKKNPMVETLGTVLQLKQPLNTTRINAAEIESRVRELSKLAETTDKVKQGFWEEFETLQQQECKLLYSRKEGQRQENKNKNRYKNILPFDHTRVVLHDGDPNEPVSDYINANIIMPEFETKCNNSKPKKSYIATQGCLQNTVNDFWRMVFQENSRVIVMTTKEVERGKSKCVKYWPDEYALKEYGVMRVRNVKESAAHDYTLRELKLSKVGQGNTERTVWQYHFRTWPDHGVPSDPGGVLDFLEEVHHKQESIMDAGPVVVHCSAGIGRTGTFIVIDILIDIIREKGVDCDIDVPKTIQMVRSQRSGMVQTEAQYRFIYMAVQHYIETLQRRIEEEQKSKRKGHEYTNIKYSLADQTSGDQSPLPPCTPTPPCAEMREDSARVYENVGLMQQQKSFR
Protocol: SHP2 Enzyme Activity Test In Vitro
SHP2 enzyme activity of the compounds in the above examples are tested as follows.
as §7
The log value for concentration is taken as X-axis and the percent inhibition is taken as Y-axis, and the log (inhibitor) vs. response variable slope of the analysis software GraphPad Prism 5 is used to fit the dose-response curve to obtain the IC50 values for each compound on enzyme activity.

[6] = test system: SHP2 and CDK4/6; assay: In vitro enzyme activity and antiproliferative activity tests (summary statement)
[7] = test system: MDA-MB-231 cells; assay: Cell cycle experiment (PI flow cytometry), MDA-MB-231; type: cell-based; conditions: MDA-MB-231, 48 hours, compared with TNO155, Abemaciclib and their combination
Protocol: (§6) Cells are washed once with PBS and 1 mL of trypsin without EDTA (0.25%) is added. When cells change round and part of the cells are suspended, the digestion is terminated by adding PBS, subsequently, the cells are harvested and fixed in 70% ethanol (500 μL) at 4° C. for 24 hours. Cells are collected by washing with PBS and centrifuged at 1500 rpm for 5 minutes, then stained with PI/RNase in the dark at the room temperature for 30 minutes-60 minutes. After incubation, the cells are analyzed by flow cytometry. All experiments are performed 3 times.

[8] = test system: MDA-MB-468 cells; assay: Cell cycle experiment (PI flow cytometry), MDA-MB-468; type: cell-based; conditions: MDA-MB-468, 48 hours, compared with TNO155, Abemaciclib and their combination
Protocol: as §6

Chain of CDK4 (P11802 whole entry): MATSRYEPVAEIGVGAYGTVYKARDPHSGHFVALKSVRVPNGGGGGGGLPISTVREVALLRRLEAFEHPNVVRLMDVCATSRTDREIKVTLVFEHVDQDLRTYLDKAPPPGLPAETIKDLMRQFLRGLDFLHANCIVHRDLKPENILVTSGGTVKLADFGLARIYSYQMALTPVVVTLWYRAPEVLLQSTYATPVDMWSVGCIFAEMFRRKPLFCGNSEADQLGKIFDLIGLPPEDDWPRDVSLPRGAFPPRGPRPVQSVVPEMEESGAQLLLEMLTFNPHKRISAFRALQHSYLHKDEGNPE
Chain of CDK4 (P30281 whole entry partner): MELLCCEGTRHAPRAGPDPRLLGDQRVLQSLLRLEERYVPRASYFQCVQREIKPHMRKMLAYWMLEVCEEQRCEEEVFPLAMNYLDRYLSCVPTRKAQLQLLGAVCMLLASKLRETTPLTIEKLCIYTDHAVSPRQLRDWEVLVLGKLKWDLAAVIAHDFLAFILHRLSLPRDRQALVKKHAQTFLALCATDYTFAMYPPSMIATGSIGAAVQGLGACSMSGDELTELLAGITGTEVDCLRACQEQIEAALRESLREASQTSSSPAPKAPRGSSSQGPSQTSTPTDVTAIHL

IC50 [1] | IC50 [2] | IC50 [4] | IC50 [5] | SMILES | IC50 [3] | other results
> 20 µM | > 20 µM | – | – | CCN1CCN(Cc2ccc(Nc3ncc(F)c(-c4cc(F)c5nc(C)n(C(C)C)c5c4)n3)nc2)CC1 [Abemaciclib, reference compound] | 4.2 µM | –
– | – | > 1000 nM | > 1000 nM | CN(C)C(=O)c1cc2cnc(Sc3cnc(N4CCC(C)(N)CC4)cn3)cc2n1C1CCCC1 [Compound 1] | – | –
– | – | 9 nM | > 1000 nM | CN(C)C(=O)c1cc2cnc(Nc3ccc(Sc4cnc(N5CCC(C)(N)CC5)cn4)cn3)nc2n1C1CCCC1 [Compound 2] | – | –
– | – | > 1000 nM | 57 nM | CN(C)C(=O)c1cc2cnc(Nc3ccc(Sc4cnc(N5CCC6(CC5)Cc5ccccc5[C@H]6N)cn4)c(Cl)c3)nc2n1C1CCCC1 [Compound 3] | – | –
– | – | 435 nM | 30 nM | CN(C)C(=O)c1cc2cnc(Nc3nccc(Sc4cnc(N5CCC(C)(N)CC5)cn4)c3Cl)nc2n1C1CCCC1 [Compound 4] | – | –
– | – | > 1000 nM | 4 nM | CN(C)C(=O)c1cc2cnc(Nc3nccc(Sc4cnc(N5CCC6(CC5)Cc5ccccc5[C@H]6N)cn4)c3Cl)nc2n1C1CCCC1 [Compound 5] | – | –
– | – | > 1000 nM | 736 nM | CN(C)C(=O)c1cc2cnc(Nc3nccc(Sc4cnc(N5CC[C@H](N)c6ccccc6C5)cn4)c3Cl)nc2n1C1CCCC1 [Compound 6] | – | –
– | – | > 1000 nM | > 1000 nM | CN(C)C(=O)c1cc2cnc(N(c3ncc4cc(C(=O)N(C)C)n(C5CCCC5)c4n3)c3nccc(Sc4cnc(N5CC[C@H](N)c6ccccc6C5)cn4)c3Cl)nc2n1C1CCCC1 [Compound 7] | – | –
– | – | 905 nM | > 1000 nM | CN(C)C(=O)c1cc2cnc(Nc3nccc(Sc4cnc(N5CCN([C@H]6Cc7ccccc7[C@H]6N)CC5)cn4)c3Cl)nc2n1C1CCCC1 [Compound 8] | – | –
– | – | 538 nM | 36 nM | CN(C)C(=O)c1cc2cnc(Nc3ccc(Sc4cnc(N5CCC6(CC5)Cc5ccccc5[C@H]6N)cn4)c(Cl)n3)nc2n1C1CCCC1 [Compound 9] | – | –
4.4 µM | 5.9 µM | – | 10 nM | Cc1nc2c(F)cc(-c3nc(Nc4nccc(Sc5cnc(N6CCC7(CC6)Cc6ccccc6[C@H]7N)cn5)c4Cl)ncc3F)cc2n1C(C)C [Compound 10] | 1.1 µM | double-target inhibition activity [6]: better double-target inhibition activity
– | – | 31 nM | > 1000 nM | Cc1nc2c(F)cc(-c3nc(Nc4ccc(Sc5cnc(N6CCC(C)(N)CC6)cn5)c(C#N)n4)ncc3F)cc2n1C(C)C [Compound 11] | – | –
– | – | 141 nM | > 1000 nM | Cc1nc2c(F)cc(-c3nc(Nc4ccc(Sc5cnc(N6CCC7(CC6)CO[C@@H](C)[C@H]7N)cn5)c(C#N)n4)ncc3F)cc2n1C(C)C [Compound 12] | – | –
– | – | 11 nM | 216 nM | Cc1nc2c(F)cc(-c3nc(Nc4cnc(Sc5cnc(N6CCC7(CC6)CO[C@@H](C)[C@H]7N)cn5)c(Cl)c4)ncc3F)cc2n1C(C)C [Compound 13] | – | –
6.4 µM | 1.8 µM | 19 nM | 5 nM | Cc1nc2c(F)cc(-c3nc(Nc4nccc(Sc5cnc(N6CCC7(CC6)CO[C@@H](C)[C@H]7N)cn5)c4Cl)ncc3F)cc2n1C(C)C [Compound 14] | 0.6 µM | G0/G1 phase arrest [7]: better cycle G0/G1 phase arrest; G0/G1 phase arrest [8]: better cycle G0/G1 phase arrest; double-target inhibition activity [6]: better double-target inhibition activity
– | – | 145 nM | > 1000 nM | Cc1nc2c(F)cc(-c3nc(Nc4ccc(Sc5cnc(N6CCC7(CC6)CO[C@@H](C)[C@H]7N)cn5)c(Cl)n4)ncc3F)cc2n1C(C)C [Compound 15] | – | –
– | – | – | > 1000 nM | CN(C)C(=O)c1cc2cnc(Nc3ccc(Sc4cnc(N5CCC(C)(N)CC5)cn4)c(Cl)n3)nc2n1C1CCCC1 [Compound 16] | – | –
– | – | > 1000 nM | > 1000 nM | Cc1nc2c(F)cc(-c3nc(Nc4cc(Sc5cnc(N6CCC7(CC6)CO[C@@H](C)[C@H]7N)cn5)c(Cl)cn4)ncc3F)cc2n1C(C)C [Compound 17] | – | –
9.6 µM | 3.7 µM | 3 nM | 9 nM | Cc1nc2c(F)cc(-c3nc(Nc4nccc(Sc5cnc(N6CCC7(CC6)CO[C@@H](C)[C@H]7N)cn5)c4C#N)ncc3F)cc2n1C(C)C [Compound 19] | 0.7 µM | double-target inhibition activity [6]: better double-target inhibition activity
– | – | 123 nM | 598 nM | Cc1nc2c(F)cc(-c3nc(Nc4ccc(Cl)c(Sc5cnc(N6CCC7(CC6)CO[C@@H](C)[C@H]7N)cn5)n4)ncc3F)cc2n1C(C)C [Compound 20] | – | –
– | – | 9 nM | > 1000 nM | Cc1nc2c(F)cc(-c3nc(Nc4cc(Cl)c(Sc5cnc(N6CCC7(CC6)CO[C@@H](C)[C@H]7N)cn5)cn4)ncc3F)cc2n1C(C)C [Compound 21] | – | –
3.2 µM | 10.5 µM | – | – | Cc1nc2c(F)cc(-c3nc(Nc4ccc(Sc5cnc(N6CCC7(CC6)CO[C@@H](C)[C@H]7N)cn5)c(Cl)c4)ncc3F)cc2n1C(C)C [Compound 23] | 1.7 µM | double-target inhibition activity [6]: better double-target inhibition activity; IC50 ([5]; read-out: SHP2 IC50, fluorescence Ex355/Em460, activation peptide): 61 nM
– | – | > 1000 nM | > 1000 nM | Cc1nc2c(F)cc(-c3nc(Nc4ccc(Sc5cnc(N6CCC7(CC6)Cc6ccccc6[C@H]7N)cn5)c(Cl)n4)ncc3F)cc2n1C(C)C [Compound 24] | – | –
4.6 µM | 9.1 µM | 8 nM | 15 nM | Cc1nc2c(F)cc(-c3nc(Nc4cccc(Sc5cnc(N6CCC7(CC6)CO[C@@H](C)[C@H]7N)cn5)c4Cl)ncc3F)cc2n1C(C)C [Compound 25] | 0.6 µM | double-target inhibition activity [6]: better double-target inhibition activity
5.1 µM | 9.6 µM | 17 nM | 48 nM | Cc1nc2c(F)cc(-c3nc(Nc4cc(Sc5cnc(N6CCC7(CC6)CO[C@@H](C)[C@H]7N)cn5)ccn4)ncc3F)cc2n1C(C)C [Compound 26] | 1.1 µM | double-target inhibition activity [6]: better double-target inhibition activity
> 20 µM | > 20 µM | – | – | C[C@@H]1OCC2(CCN(c3cnc(Sc4ccnc(N)c4Cl)c(N)n3)CC2)[C@@H]1N [TNO155, reference compound] | 7 µM | –
